# Data as given in patent US20250041429A1, “COMPOUND HAVING BTK PROTEIN DEGRADATION ACTIVITY, AND MEDICAL USES THEREOF” (UBIX THERAPEUTICS, INC., priority 2021, published 2025).
# Target: T1, BTK protein (Homo sapiens, UniProt Q06187)
# T1 construct: endogenous in cells; host or cells: TMD-8 cells
# Assay: Measurement of BTK protein degradation ability in TMD-8 cells (Western blotting)
# Type: cell-based
# Settings: harvested after 24 hours; for BTK degradation (%) 1 nM: compound 1 nM; for BTK degradation (%) 10 nM: compound 10 nM; for BTK degradation (%) 100 nM: compound 100 nM
# In short: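 TMD-8 cells (1×10^6/mL) were treated for 24 h with compound at 0.1, 1, 10 μM or 0.0001–0.1 μM, with DMSO as vehicle control. RIPA lysates were normalized by BCA assay. BTK was detected by Western blot with anti-BTK, using GAPDH or β-actin as loading controls, and imaged on LI-COR Odyssey.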
# T1 sequence (Q06187 whole entry): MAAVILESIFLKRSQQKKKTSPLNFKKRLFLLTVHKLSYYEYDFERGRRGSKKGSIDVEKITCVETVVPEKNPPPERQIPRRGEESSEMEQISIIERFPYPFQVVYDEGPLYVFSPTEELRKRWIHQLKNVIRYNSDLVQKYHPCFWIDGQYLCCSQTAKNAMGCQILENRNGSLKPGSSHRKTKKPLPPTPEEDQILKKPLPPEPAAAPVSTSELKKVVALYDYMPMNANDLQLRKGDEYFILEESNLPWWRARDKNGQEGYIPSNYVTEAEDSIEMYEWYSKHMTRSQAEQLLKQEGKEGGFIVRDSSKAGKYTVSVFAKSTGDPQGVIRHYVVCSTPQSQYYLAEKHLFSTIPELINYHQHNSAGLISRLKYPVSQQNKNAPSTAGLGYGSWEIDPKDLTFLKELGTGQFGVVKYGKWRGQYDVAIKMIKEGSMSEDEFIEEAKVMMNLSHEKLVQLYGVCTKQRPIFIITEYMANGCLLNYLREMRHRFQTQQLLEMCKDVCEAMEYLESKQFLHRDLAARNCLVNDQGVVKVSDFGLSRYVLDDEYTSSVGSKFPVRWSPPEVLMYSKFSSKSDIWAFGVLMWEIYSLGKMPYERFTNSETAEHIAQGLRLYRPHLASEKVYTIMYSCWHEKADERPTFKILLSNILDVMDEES
structure (smiles),measurement,value
"Cc1cc(-c2ccnc(Nc3ccc(C4CCN(CC5CN(C(=O)c6cccc(NC7CCC(=O)NC7=O)c6)C5)CC4)cc3)n2)ccc1CNC(=O)N1CC(OC(C)C)C1 (stereo not drawn) [Example 100, N-(4-(2-((4-(1-((1-(3-((2,6-dioxopiperidin-3-yl)amino)benzoyl)azetidin-3-yl)methyl)piperidin-4-yl)phenyl)amino)pyrimidin-4-yl)-2-methylbenzyl)-3-isopropoxyazetidine-1-carboxamide]",BTK degradation (%) 1 nM,40.5%
same,BTK degradation (%) 10 nM,91.0%
same,BTK degradation (%) 100 nM,98.0%
"Cc1cc(-c2ccnc(Nc3ccc(C4CN(CC5CCN(C(=O)c6cccc(NC7CCC(=O)NC7=O)c6)CC5)C4)cc3)n2)ccc1CNC(=O)N1CC(OC(C)C)C1 (stereo not drawn) [Example 101, N-(4-(2-((4-(1-((1-(3-((2,6-dioxopiperidin-3-yl)amino)benzoyl)piperidin-4-yl)methyl)azetidin-3-yl)phenyl)amino)pyrimidin-4-yl)-2-methylbenzyl)-3-isopropoxyazetidine-1-carboxamide]",BTK degradation (%) 1 nM,50.5%
same,BTK degradation (%) 10 nM,98.0%
same,BTK degradation (%) 100 nM,100.0%
"Cc1cc(-c2ccnc(Nc3ccc(N4CCN(CC5CCN(C(=O)c6cccc(OC7CCC(=O)NC7=O)c6)CC5)CC4)cc3)n2)ccc1CNC(=O)N1CC(OC(C)C)C1 (stereo not drawn) [Example 102, N-(4-(2-((4-(4-((1-(3-((2,6-dioxopiperidin-3-yl)oxy)benzoyl)piperidin-4-yl)methyl)piperazin-1-yl)phenyl)amino)pyrimidin-4-yl)-2-methylbenzyl)-3-isopropoxyazetidine-1-carboxamide]",BTK degradation (%) 1 nM,19.0%
same,BTK degradation (%) 10 nM,82.5%
same,BTK degradation (%) 100 nM,94.0%
"Cc1cc(-c2ccnc(Nc3ccc(N4CCN(C5CCN(C(=O)c6cccc(NC7CCC(=O)NC7=O)c6)CC5)CC4)cc3)n2)ccc1CNC(=O)N1CC(OC(C)C)C1 (stereo not drawn) [Example 103, N-(4-(2-((4-(4-(1-(3-((2,6-dioxopiperidin-3-yl)amino)benzoyl)piperidin-4-yl)piperazin-1-yl)phenyl)amino)pyrimidin-4-yl)-2-methylbenzyl)-3-isopropoxyazetidine-1-carboxamide]",BTK degradation (%) 1 nM,−12.5%
same,BTK degradation (%) 10 nM,69.0%
same,BTK degradation (%) 100 nM,97.0%
"Cc1cc(-c2ccnc(Nc3ccc(C4CCN(C5CCN(C(=O)c6cccc(NC7CCC(=O)NC7=O)c6)CC5)CC4)cc3)n2)ccc1CNC(=O)N1CC(OC(C)C)C1 (stereo not drawn) [Example 104, N-(4-(2-((4-(1′-(3-((2,6-dioxopiperidin-3-yl)amino)benzoyl)-[1,4′-bipiperidin]-4-yl)phenyl)amino)pyrimidin-4-yl)-2-methylbenzyl)-3-isopropoxyazetidine-1-carboxamide]",BTK degradation (%) 1 nM,−9.0%
same,BTK degradation (%) 10 nM,39.0%
same,BTK degradation (%) 100 nM,95.5%
"Cc1cc(-c2ccnc(Nc3ccc(N4CCN(CC5CCN(CC(=O)Nc6cccc(NC7CCC(=O)NC7=O)c6)CC5)CC4)cc3)n2)ccc1CNC(=O)N1CC(OC(C)C)C1 (stereo not drawn) [Example 105, N-(4-(2-((4-(4-((1-(2-((3-((2,6-dioxopiperidin-3-yl)amino)phenyl)amino)-2-oxoethyl)piperidin-4-yl)methyl)piperazin-1-yl)phenyl)amino)pyrimidin-4-yl)-2-methylbenzyl)-3-isopropoxyazetidine-1-carboxamide]",BTK degradation (%) 1 nM,35%
same,BTK degradation (%) 10 nM,91.5%
same,BTK degradation (%) 100 nM,98%
"Cc1c(NC(=O)N2CC(OC(C)C)C2)cc(F)cc1-c1ccnc(Nc2ccc(N3CCN(CC4CCN(CC(=O)Nc5cccc(NC6CCC(=O)NC6=O)c5)CC4)CC3)cc2)n1 (stereo not drawn) [Example 106, N-(3-(2-((4-(4-((1-(2-((3-((2,6-dioxopiperidin-3-yl)amino)phenyl)amino)-2-oxoethyl)piperidin-4-yl)methyl)piperazin-1-yl)phenyl)amino)pyrimidin-4-yl)-5-fluoro-2-methylphenyl)-3-isopropoxyazetidine-1-carboxamide]",BTK degradation (%) 1 nM,1%
same,BTK degradation (%) 10 nM,20%
same,BTK degradation (%) 100 nM,76%
"Cc1cc(-c2ccnc(Nc3ccc(N4CCN(CC5CN(c6ccc7c(n6)CN(C6CCC(=O)NC6=O)C7=O)C5)CC4)cc3)n2)ccc1CNC(=O)N1CC(OC(C)C)C1 (stereo not drawn) [Example 107, N-(4-(2-((4-(4-((1-(6-(2,6-dioxopiperidin-3-yl)-5-oxo-6,7-dihydro-5H-pyrrolo[3,4-b]pyridin-2-yl)azetidin-3-yl)methyl)piperazin-1-yl)phenyl)amino)pyrimidin-4-yl)-2-methylbenzyl)-3-isopropoxyazetidine-1-carboxamide]",BTK degradation (%) 1 nM,63.5%
same,BTK degradation (%) 10 nM,95%
same,BTK degradation (%) 100 nM,98%
"Cc1c(NC(=O)N2CC(OC(C)C)C2)cc(F)cc1-c1ccnc(Nc2ccc(N3CCN(CC4CN(c5ccc6c(n5)CN(C5CCC(=O)NC5=O)C6=O)C4)CC3)cc2)n1 (stereo not drawn) [Example 108, N-(3-(2-((4-(4-((1-(6-(2,6-dioxopiperidin-3-yl)-5-oxo-6,7-dihydro-5H-pyrrolo[3,4-b]pyridin-2-yl)azetidin-3-yl)methyl)piperazin-1-yl)phenyl)amino)pyrimidin-4-yl)-5-fluoro-2-methylphenyl)-3-isopropoxyazetidine-1-carboxamide]",BTK degradation (%) 1 nM,21.5%
same,BTK degradation (%) 10 nM,73%
same,BTK degradation (%) 100 nM,94.5%
"Cc1cc(-c2ccnc(Nc3ccc(N4CCN(C5CCN(c6ccc7c(c6)C(=O)N(C6CCC(=O)NC6=O)C7=O)CC5)CC4)cc3)n2)ccc1CNC(=O)N1CC(OC(C)C)C1 (stereo not drawn) [Example 109, N-(4-(2-((4-(4-(1-(2-(2,6-dioxopiperidin-3-yl)-1,3-dioxoisoindolin-5-yl)piperidin-4-yl)piperazin-1-yl)phenyl)amino)pyrimidin-4-yl)-2-methylbenzyl)-3-isopropoxyazetidine-1-carboxamide]",BTK degradation (%) 1 nM,41.5%
same,BTK degradation (%) 10 nM,94.0%
same,BTK degradation (%) 100 nM,99.5%
"Cc1cc(-c2ccnc(Nc3ccc(C4CCN(C5CCN(c6ccc7c(c6)C(=O)N(C6CCC(=O)NC6=O)C7=O)CC5)CC4)cc3)n2)ccc1CNC(=O)N1CC(OC(C)C)C1 (stereo not drawn) [Example 110, N-(4-(2-((4-(1′-(2-(2,6-dioxopiperidin-3-yl)-1,3-dioxoisoindolin-5-yl)-[1,4′-bipiperidin]-4-yl)phenyl)amino)pyrimidin-4-yl)-2-methylbenzyl)-3-isopropoxyazetidine-1-carboxamide]",BTK degradation (%) 1 nM,28.0%
same,BTK degradation (%) 10 nM,92.0%
same,BTK degradation (%) 100 nM,99.5%
"Cc1cc(-c2ccnc(Nc3ccc(N4CCC(CN5CCN(c6ccc7c(c6)C(=O)N(C6CCC(=O)NC6=O)C7=O)CC5)CC4)cc3)n2)ccc1CNC(=O)N1CC(OC(C)C)C1 (stereo not drawn) [Example 111, N-(4-(2-((4-(4-((4-(2-(2,6-dioxopiperidin-3-yl)-1,3-dioxoisoindolin-5-yl)piperazin-1-yl)methyl)piperidin-1-yl)phenyl)amino)pyrimidin-4-yl)-2-methylbenzyl)-3-isopropoxyazetidine-1-carboxamide]",BTK degradation (%) 1 nM,44%
same,BTK degradation (%) 10 nM,93.5%
same,BTK degradation (%) 100 nM,99.5%
"Cc1cc(-c2ccnc(Nc3ccc(N4CC(CN5CCN(c6ccc7c(c6)C(=O)N(C6CCC(=O)NC6=O)C7=O)CC5)C4)cc3)n2)ccc1CNC(=O)N1CC(OC(C)C)C1 (stereo not drawn) [Example 112, N-(4-(2-((4-(3-((4-(2-(2,6-dioxopiperidin-3-yl)-1,3-dioxoisoindolin-5-yl)piperazin-1-yl)methyl)azetidin-1-yl)phenyl)amino)pyrimidin-4-yl)-2-methylbenzyl)-3-isopropoxyazetidine-1-carboxamide]",BTK degradation (%) 1 nM,44.0%
same,BTK degradation (%) 10 nM,97.0%
same,BTK degradation (%) 100 nM,100.0%
"Cc1cc(-c2ccnc(Nc3ccc(N4CC(CN5CCN(C(=O)c6cccc(NC7CCC(=O)NC7=O)c6)CC5)C4)cc3)n2)ccc1CNC(=O)N1CC(OC(C)C)C1 (stereo not drawn) [Example 113, N-(4-(2-((4-(3-((4-(3-((2,6-dioxopiperidin-3-yl)amino)benzoyl)piperazin-1-yl)methyl)azetidin-1-yl)phenyl)amino)pyrimidin-4-yl)-2-methylbenzyl)-3-isopropoxyazetidine-1-carboxamide]",BTK degradation (%) 1 nM,39.5%
same,BTK degradation (%) 10 nM,97.0%
same,BTK degradation (%) 100 nM,100.0%
"Cc1cc(-c2ccnc(Nc3ccc(N4CCC(CN5CCN(C(=O)c6cccc(NC7CCC(=O)NC7=O)c6)CC5)CC4)cc3)n2)ccc1CNC(=O)N1CC(OC(C)C)C1 (stereo not drawn) [Example 114, N-(4-(2-((4-(4-((4-(3-((2,6-dioxopiperidin-3-yl)amino)benzoyl)piperazin-1-yl)methyl)piperidin-1-yl)phenyl)amino)pyrimidin-4-yl)-2-methylbenzyl)-3-isopropoxyazetidine-1-carboxamide]",BTK degradation (%) 1 nM,59.0%
same,BTK degradation (%) 10 nM,99.5%
same,BTK degradation (%) 100 nM,99.5%
"Cc1cc(-c2ccnc(Nc3ccc(N4CCN(CC5CCN(Cc6cccc(NC7CCC(=O)NC7=O)c6)CC5)CC4)cc3)n2)ccc1CNC(=O)N1CC(OC(C)C)C1 (stereo not drawn) [Example 115, N-(4-(2-((4-(4-((1-(3-((2,6-dioxopiperidin-3-yl)amino)benzyl)piperidin-4-yl)methyl)piperazin-1-yl)phenyl)amino)pyrimidin-4-yl)-2-methylbenzyl)-3-isopropoxyazetidine-1-carboxamide]",BTK degradation (%) 1 nM,48.0%
same,BTK degradation (%) 10 nM,97.0%
same,BTK degradation (%) 100 nM,100.0%
"Cc1cc(-c2ccnc(Nc3ccc(N4CCC(C(=O)N5CCC(c6cccc(NC7CCC(=O)NC7=O)c6)CC5)CC4)cc3)n2)ccc1CNC(=O)N1CC(OC(C)C)C1 (stereo not drawn) [Example 116, N-(4-(2-((4-(4-(4-(3-((2,6-dioxopiperidin-3-yl)amino)phenyl)piperidine-1-carbonyl)piperidin-1-yl)phenyl)amino)pyrimidin-4-yl)-2-methylbenzyl)-3-isopropoxyazetidine-1-carboxamide]",BTK degradation (%) 1 nM,1.0%
same,BTK degradation (%) 10 nM,56.0%
same,BTK degradation (%) 100 nM,96.5%
